In paper PMC8179515 (Chemical Science, 2021):

Experiments:
Aβ1-42 oligomers (Aβo) = Aβ1-42 oligomers (Aβo) (Homo sapiens, UniProt P05067); assay type: binding
albumin = conditions: cited from earlier work
monomeric amyloid-β = conditions: cited from earlier work

Aβ1-42 oligomers (Aβo), sequence (P05067 672-713): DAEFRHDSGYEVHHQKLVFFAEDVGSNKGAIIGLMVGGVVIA

C=C(c1ccc(C(=O)O)cc1)c1cc2c(cc1C)C(C)(C)CCC2(C)C [Bexarotene]
Highest% STD (Aβ1-42 oligomers (Aβo)): 14.60%

CC(C(=O)O)c1ccc(-c2ccccc2)c(F)c1 (stereo not drawn) [flurbiprofen]
bound to albumin (albumin): > 99%

solanezumab
affinity for central epitope KLVFFAED (monomeric amyloid-β): picomolar affinity
